Data: patent US20150352196A1, “Methods and Pharmaceutical Compositions for Prevention of Aging-Related Lesions” (INSERM (INSTITUT NATIONAL DE LA SANTÉ ET DE LA RECHERCHE …, priority 2012, published 2015)

Experiments:
Assay type in all cases: cell-based
PI3kinase/Akt pathway = assay: FOXO reporter in transfected HEK cells exposed to IGF-1; conditions: HEK cells transfected with FOXO reporter
Text: In addition, the inventors transfected HEK cells by a FOXO reporter measuring the activity of the Pl3kinase/Akt pathway downstream of IGF-1 receptor.

[1] = system: mouse smooth muscle cells; assay: mitogenic effect of IGF-1 on mouse smooth muscle cells in vitro; conditions: IGF-1 stimulated
calpain = calpain activity assays in cell lines expressing IGF-1 receptor after exposure to IGF-1; conditions: including immortalized podocytes
Text: Inventors first focused their work on somatotropic axis and particularly IGF-1 receptor role in calpain activation. […] Calpain activity assays developed in the laboratory have been performed in several cell lines expressing IGF-1 receptor (podocyte lines, splenocytes, mesangial cells) after exposure to IGF-1.

For “(2Z)-3-(4-iodophenyl)-2-mercapto-2-Propenoic acid, 3-(4-iodophenyl)-2-mercapto-(Z)-2-propenoic acid [PD-150606]”, the “activity of the PI3kinase/Akt pathway downstream of IGF-1 receptor (FOXO reporter)” value (PI3kinase/Akt pathway) was “inhibited significantly” and the “mitogenic effect of IGF-1” value [1] was “blunted partly but significantly”.

In the case of “IGF-1: ligand of the IGF-1 receptor, somatotropic axis; used to stimulate cell lines”, the calpain activity (calpain) is reported as “increase calpain activity in a dose- and time-dependent manner”.
